Literature values, collected in US5480905A, “Benzodioxane derivatives” (Chugai Seiyaku Kabushiki Kaisha, priority 1991, dated 1996).
Entries after “also recorded” stand apart in the source; their conditions may differ.

Tests used:
[1] = in vivo; cited from earlier work
[2] = tested on: intracerebral serotonin 2 receptor; settings: continuous administration; cited from earlier work

O=C1c2ccccc2S(=O)(=O)N1CCCCN1CCN(c2ncccn2)CC1 [Ipsapirone]
Antianxiety/antidepressant action (words, background) [1]: only weak antidepressant and antianxiety effects; also recorded: both antianxiety and antidepressant effects
Side effects (words, background) [1]: either lower ultromotivity (probably due to the dopamine antagonistic action) or serotonin syndrome
intracerebral serotonin 2 receptor (words, background) [2]: decrease in the intracerebral serotonin 2 receptor
